Source: article PMC3842914, “Meleagrin, a New FabI Inhibitor from Penicillium chryosogenum with at Least One Additional Mode of Action” (PLoS ONE, 2013)
In brackets after ≈: the same amount, converted by molar mass. Like-named read-outs stand apart in the source and are kept apart here.

What was measured:
[1] = system: S. aureus RN4220 (pE194); test: Overexpression assay, MIC for vector-containing S. aureus RN4220 (pE194); type: cell-based; conditions: Staphylococcus aureus, read-out: MIC S. aureus (pE194)
Protocol: (§1) Whole-cell antimicrobial activity was determined by broth microdilution as described previously. The test strains except for S. pneumoniae were grown to mid-log phase in Mueller–Hinton broth and diluted 1,000-fold in the same medium. Cells (10^5/mL) were inoculated into Mueller–Hinton broth and dispensed at 0.2 mL/well into a 96-well microtiter plate. S. pneumoniae was grown in tryptic soy broth supplemented with 5% sheep blood. MICs were determined in triplicate by serial 2-fold dilutions of test compounds. […] Bacterial growth was determined by measuring the absorption at 650 nm by using a microtiter ELISA reader.
An overexpression assay using S. aureus RN4220, S. aureus RN4220 (pE194), and S. aureus RN4220 (pE194-fabI) was conducted to perform target validation of FabI inhibitors as described previously. Additionally, both fabI- and fabK-overexpressing E. coli were constructed to test a multitarget effect of the compounds. The wild-type fabI gene from the genomic DNA of E. coli W3110 was amplified by PCR by using the primers 5′-[…]-3′ and 5′-[…]-3′. The wild-type fabK gene from the genomic DNA of S. pneumoniae KCTC 5412 was amplified by PCR by using the primers 5′-[…]-3′ and 5′-[…] […]-3′. The resulting products were cloned into the pBAD-TOPO TA expression vector (Invitrogen, Carlsbad, CA, USA) to yield the pBAD-fabI and pBAD-fabK recombinant plasmids, which placed the expression of the genes fabI and fabK, respectively, under the control of the arabinose promoter. Recombinant pBAD-fabI and pBAD-fabK were then introduced into the pump-negative (tolC) E. coli EW1b via electroporation to generate E. coli EW1b (pBAD-fabI) and E. coli EW1b (pBAD-fabK), respectively.

[2] = system: S. aureus RN4220; test: MIC by broth microdilution, S. aureus RN4220 (wild type); type: cell-based, Staphylococcus aureus; conditions: for MIC: Staphylococcus aureus, S. aureus RN4220 (wild type); for Antibacterial activity relative to compound 1: against S. aureus RN4220 and E. coli KCTC 1924
Protocol: as §1

[3] = system: incorporation of leucine into proteins in S. aureus; test: [14C] leucine incorporation into proteins in S. aureus; type: cell-based; conditions: Staphylococcus aureus
Protocol: To monitor the effects of compound 1 on lipid, DNA, RNA, protein, and cell wall biosynthesis, its effects on the incorporation of [1-^14C] acetate (50 mCi/mmol), [2-^14C] thymidine (59.8 mCi/mmol), [U-^14C] uridine (539 mCi/mmol), L-[U-^14C] leucine (306 mCi/mmol) or L-[U-^14C] isoleucine (329 mCi/mmol), and N-acetyl-D-[1-^14C] glucosamine (58.1 mCi/mmol) into S. aureus and S. pneumoniae were measured as described previously. S. aureus was exponentially grown to an A650 of 0.2 in Mueller–Hinton broth. S. pneumoniae was grown in tryptic soy broth supplemented with 5% sheep blood. […] An equal volume of DMSO solvent was added to the untreated control. After incubation with the radiolabeled precursors at 37°C for 1 h, followed by centrifugation, the cell pellets were washed twice with PBS buffer. After acetate incorporation, the total cellular lipids were extracted with chloroform-methanol-water. The incorporated radioactivity in the chloroform phase was measured by scintillation counting. For the other precursors, incorporation was terminated by adding 10% (w/v) TCA and cooling on ice for 20 min. The precipitated material was collected on Whatman GF/C glass microfiber filters, washed with TCA and ethanol, dried, and counted using a scintillation counter. The total counts incorporated at 1 h of incubation without inhibitors ranged from >7,000 for [U-^14C] uridine to <13,000 for [1-^14C] acetate. […] In all experiments, known antibacterial agents were included as positive controls.
We measured their effects on the incorporation of [1-^14C] acetate into membrane fatty acids in S. aureus. […] In contrast, the incorporation of leucine into proteins was not inhibited by the active compounds (Table 1), whereas the protein synthesis inhibitor, chloramphenicol, inhibited incorporation (data not shown).

[4] = target: T1, E. coli FabI (Escherichia coli, UniProt P0AEK4); test: E. coli FabI enzyme assay (NADH as cofactor); type: biochemical
T1 construct: made in house
Text: (§2) S. aureus FabI and E. coli FabI enzymes were cloned, overexpressed, and purified as described previously. The wild-type fabK gene was amplified by PCR from genomic DNA obtained from Streptococcus pneumoniae KCTC 5412 by using the primers 5′-[…]-3′ and 5′-[…]-3′, which contained NdeI and XhoI restriction sites, respectively. After the DNA sequence was confirmed, the gene was cloned into the pET22b vector (Novagen, Gibbstown, NJ, USA). The construct was transformed into E. coli BL21 (DE3) for expression following induction with isopropylthiogalactoside. The C-terminal His-tagged protein was purified as described previously. Assays were conducted in half-area, 96-well microtiter plates. The compounds were dissolved in DMSO and evaluated in 100-μL assay mixtures containing components specific for each enzyme (see below). Reduction of the trans-2-octenoyl N-acetylcysteamine (t-o-NAC thioester) substrate analog was measured spectrophotometrically following the utilization of NADH or NADPH at 340 nm at 30°C for the linear period of the assay. S. aureus FabI assays contained 50 mM sodium acetate (pH 6.5), 200 μM t-o-NAC thioester, 200 μM NADPH, and 150 nM S. aureus FabI.
(§3) NADH was used as a cofactor rather than NADPH for the E. coli FabI assay. Substrate concentrations used for the Lineweaver–Burk plot were 100, 200, 300, and 400 μM, whereas the concentrations of the cofactor were 100, 200, 400, and 600 μM. The rate of decrease in the amount of NADPH in each reaction was measured with a microtiter enzyme-linked immunosorbent assay (ELISA) reader by using the SOFTmax PRO software (Molecular Devices, Sunnyvale, CA, USA). The inhibitory activity was calculated according to the following formula: % of inhibition = 100× [1− (rate in the presence of compound/rate in the untreated control)]. IC50 values were calculated by fitting the data to a sigmoid equation. An equal volume of DMSO solvent was used for the untreated control. FabK assays contained 100 mM sodium acetate (pH 6.5), 2% glycerol, 200 mM NH4Cl, 50 µM t-o-NAC thioester, 200 µM NADH, and 150 nM S. pneumoniae FabK.

[5] = system: S. pneumoniae KCTC 3932; test: MIC by broth microdilution, S. pneumoniae KCTC 3932; type: cell-based; conditions: Streptococcus pneumoniae
Protocol: as §1

[6] = target: T2, S. pneumoniae FabK (Streptococcus pneumoniae, UniProt Q9FBC5); test: S. pneumoniae FabK enzyme assay; type: biochemical
T2 sequence (Q9FBC5 1-324): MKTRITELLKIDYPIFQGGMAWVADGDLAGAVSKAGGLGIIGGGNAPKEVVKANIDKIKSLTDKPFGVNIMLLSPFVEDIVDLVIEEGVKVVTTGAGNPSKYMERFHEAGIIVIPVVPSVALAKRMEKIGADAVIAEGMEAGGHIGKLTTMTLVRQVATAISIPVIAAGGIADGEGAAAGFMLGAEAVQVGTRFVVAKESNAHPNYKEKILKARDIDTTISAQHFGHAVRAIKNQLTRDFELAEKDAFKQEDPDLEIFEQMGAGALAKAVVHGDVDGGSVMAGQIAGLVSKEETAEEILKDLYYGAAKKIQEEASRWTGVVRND
Text: as §2, §3

[7] = KCTC3932, read-out: MIC S. pneumoniae
[8] = KCTC3932, S. pneumoniae KCTC 3932, read-out: MIC S. pneumoniae
[9] = S. pneumoniae FabK, read-out: IC50 spFabK

T1 sequence (P0AEK4 whole entry): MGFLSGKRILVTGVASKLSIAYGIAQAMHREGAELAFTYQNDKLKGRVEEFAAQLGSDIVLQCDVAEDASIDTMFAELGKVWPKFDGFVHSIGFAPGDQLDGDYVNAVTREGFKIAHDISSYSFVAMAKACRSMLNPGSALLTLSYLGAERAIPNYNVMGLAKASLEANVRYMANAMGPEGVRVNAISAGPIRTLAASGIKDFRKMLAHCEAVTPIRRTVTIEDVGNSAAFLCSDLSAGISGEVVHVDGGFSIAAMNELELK

SMILES	MIC [1] [µg/mL]	MIC [2] [µg/mL]	IC50 [3] [µM]	IC50 [4] [µM]	MIC [5, 7] [µg/mL]	IC50 [6] [µM]	Antibacterial activity relative to compound 1 [2]	MIC [5, 8] [µg/mL]	IC50 [6, 9] [µM]
C=CC(C)(C)C12C=C(O)C(=O)N3/C(=C/c4cnc[nH]4)C(=O)NC31N(OC)c1ccccc12 (stereo not drawn) [Compound 1, meleagrin]	64 (≈ 148 µM)	64 (≈ 148 µM)	> 200	33.2	64 (≈ 148 µM)	> 200			
C=CC(C)(C)C12C=C(OC)C(=O)N3/C(=C/c4cnc[nH]4)C(=O)N(C)C31N(OC)c1ccccc12 (stereo not drawn) [Compound 5, O,N^14-dimethylmeleagrin]	16 (≈ 34.7 µM)	16 (≈ 34.7 µM)	> 200	15.6			2–4 times	16 (≈ 34.7 µM)	> 200
C=CC(C)(C)C12C=C(OC)C(=O)N3/C(=C/c4cnc[nH]4)C(=O)NC31N(OC)c1ccccc12 (stereo not drawn) [Compound 3, oxaline]	64 (≈ 143 µM)	64 (≈ 143 µM)	> 200	38.8		> 200		64 (≈ 143 µM)	
Oc1cc(Cl)ccc1Oc1ccc(Cl)cc1Cl [Triclosan, reference compound]	0.01 (≈ 0.0345 µM)	0.01 (≈ 0.0345 µM)	> 10		64 (≈ 221 µM)	> 200			
C=CC(C)(C)C12C=C(O)C(=O)N3/C(=C/c4cnc[nH]4)C(=O)NC31Nc1c(Br)cccc12 (stereo not drawn) [Compound 7]		> 128	> 200	> 200				> 128	> 200
C=CC(C)(C)C12C=C(OC)C(=O)N3/C(=C/c4cnc[nH]4)C(=O)N(C)C31Nc1ccccc12 (stereo not drawn) [Compound 6, O,N^14-dimethylglandicolin]	16 (≈ 37.1 µM)	16 (≈ 37.1 µM)	> 200	15.4	16 (≈ 37.1 µM)	> 200	2–4 times		
C=CC(C)(C)C12C=C(O)C(=O)N3/C(=C/c4cnc[nH]4)C(=O)N(C)C31N(OC)c1ccccc12 (stereo not drawn) [Compound 4, N^14-methylmeleagrin]	64 (≈ 143 µM)	64 (≈ 143 µM)	> 200	33.1	64 (≈ 143 µM)	> 200			
